One series has as its system Pf-GHA. Kind of series: Pf-GHA growth inhibition, colorimetric NBT-based lactate dehydrogenase assay. It counts as cell-based. To be noted: Plasmodium falciparum, read-out: IC50 against Pf-GHA. The protocol: The IC50 values against Pf-GHA and MRC-5 were determined by using the less sensitive colorimetric NBT-based lactate dehydrogenase assay (Makler et al, Am. J. Trop. Med. Hyg. 1993, 48 (6), 739-741) based on redox-reactions.
In Vitro Antiparasitic Bioassays. The strain is maintained in RPMI-1640 medium supplemented with 0.37 mM hypoxanthine, 25 mM HEPES, 25 mM NaHCO3, and 10% O^+ human serum together with 2-4% washed human O^+ erythrocytes. All cultures and assays are conducted under an atmosphere of 4% CO2, 3% O2 and 93% N2. Assays are performed in 96-well microtiter plates, each well containing 10 μL of the watery compound dilutions together with 190 μL of the malaria parasite inoculum (1% parasitaemia, 2% HCT). After 72 h incubation, plates are frozen and stored at −20° C. After thawing, 20 μL of each well is transferred into another plate together with 100 μL Malstat reagent and 20 μL of 1/1 mixture of PES (phenazine ethosulfate, 0.1 mg/mL) and NBT (Nitro Blue Tetrazolium Grade III, 2 mg/mL). Change in colour is measured spectrophotometrically at 655 nm. The results are expressed as % reduction in parasitaemia compared to control wells. Compounds are treated at 5 concentrations (64-16-4-1 and 0.25 μM or μg/mL).

Series [1] deals with P. falciparum multidrug-resistant strain Dd2. Kind of series: Dd2 growth inhibition, 3H-hypoxanthine assay. Type of series: cell-based, Plasmodium falciparum. The conditions noted are these: for IC50: Plasmodium falciparum, DD2, 48 h exposure then 24 h hypoxanthine, read-out: IC50 against Dd2. On the procedure:
The IC50 was tested by standard in vitro antiproliferation assays (Desjardins et al, 1979 Antimicrob. Agents Chemother 1979, 16, 710-718). Infected erythrocytes in ring stage (0.5% parasitemia, 2.5% hematocrit) in 96-well plates were exposed to the compounds for 48 h and then to radioactive hypoxanthine for 24 h. The amount of radioactivity in precipitable material served as an index of cell proliferation.

One may read the melting point as the temperature of the solid-liquid transition. The IC50 is the concentration that gives 50% inhibition.

Where two headings read alike, the source gives them in different places.

For the compound `O=C1C=C(C(F)F)C(=O)c2ccccc21` [HB49, 2-Difluoromethyl-1,4-naphthoquinone], the melting point worked out at 74 °C.
On to `CC1=C(Cc2ccc(Br)cc2)C(=O)C2C(O)=CC=CC2C1=O` (stereo not shown) [P_TM42, 3-(4-Bromo-benzyl)-5-hydroxy-2-methyl-4a,8a-dihydro-[1,4]naphthoquinone], for which the melting point was in the range of 163 to 164 °C. For the same compound, the IC50 with Pf-GHA (72 h incubation) is under 5000 nM.
On to `O=C1C(O)=C([C@H]2CC[C@H](c3ccc(Cl)cc3)CC2)C(=O)c2ccccc21` [atovaquone, reference compound], for which the results for the IC50 (in series [1]; in the series on Pf-GHA (72 h incubation)) were under 0.1 nM and 310 nM, respectively.
For `COc1c(C)c(Cc2ccc(Cl)cc2)c(OC)c2ccccc12` [P_TM75, 2-(4-Chloro-benzyl)-1,4-dimethoxy-3-methyl-naphthalene], the melting point lay within 101 to 102 °C.
On the same count and under the same terms, the figure for `CC1=C(C(=O)c2ccc(C(=O)O)cc2)C(=O)C2C=CC=CC2C1=O` (stereo not shown) [P_TM22, 4-(3-Methyl-1,4-dioxo-1,4,4a,8a-tetrahydro-naphthalene-2-carbonyl)-benzoic acid] is 201 °C (dec.); for `CC1=C(Cc2ccc(C(=O)O)cc2)C(=O)C2C=CC=CC2C1=O` (stereo not shown) [P_TM50, 4-(3-Methyl-1,4-dioxo-1,4,4a,8a-tetrahydro-naphthalen-2-ylmethyl)-benzoic acid] it is 206 to 208 °C.
Take `CC1=C(C(=O)c2ccc(Cl)cc2)C(=O)C2C=CC=CC2C1=O` (stereo not shown) [P_TM38, 2-Methyl-3-(4-chloro-benzoyl)-4a,8a-dihydro-[1,4]naphthoquinone]: the IC50 with Pf-GHA (72 h incubation) is under 5000 nM.
`COc1ccccc1C(=O)C1=C(C)C(=O)C2C=CC=CC2C1=O` (stereo not shown) [P_TM35, 2-Methyl-3-(2-methoxy-benzoyl)-4a,8a-dihydro-[1,4]naphthoquinone] displayed a melting point of 146 to 147 °C.
The same measure, in the same setting: to `CC1=C(Cc2cccc(Br)c2)C(=O)C2C=CC=CC2C1=O` (stereo not shown) [P_TM99, 2-Methyl-3-(3-bromo-benzyl)-4a,8a-dihydro-[1,4]naphthoquinone] belongs 108 to 109 °C; to `CC1=C(Cc2ccc(C(=O)NCCC#N)cc2)C(=O)C2C=CC=CC2C1=O` (stereo not shown) [P_TM53, N-(2-Cyano-ethyl)-4-(3-methyl-1,4-dioxo-1,4,4a,8a-tetrahydronaphthalen-2-ylmethyl)-benzamide], 131 to 132 °C.
The compound `COc1ccc(CC2=C(C)C(=O)C3C=CC=CC3C2=O)cc1` (stereo not shown) [P_TM31, 2-Methyl-3-(4-methoxy-benzyl)-4a,8a-dihydro-[1,4]naphthoquinone] registered a melting point of 112 to 113 °C. Moreover, the IC50 in series [1] is under 100 nM.
In turn, `CC1=C(Cc2ccc(NC(=O)OC(C)(C)C)cc2)C(=O)C2C=CC=CC2C1=O` (stereo not shown) [P_TM45, [4-(3-Methyl-1,4-dioxo-1,4,4a,8a-tetrahydro-naphthalen-2-ylmethyl)-phenyl]-carbamic acid tert-butyl ester] showed a melting point of 148 to 149 °C.
The compound `COc1ccccc1CC1=C(C)C(=O)C2C=CC=CC2C1=O` (stereo not shown) [P_TM32, 2-Methyl-3-(2-methoxy-benzyl)-4a,8a-dihydro-[1,4]naphthoquinone] had a melting point of 117 to 118 °C. For the same compound, the IC50 in series [1] is under 100 nM.
As for `CC1=C(Cc2ccc(C(C)C)cc2)C(=O)C2C=CC=CC2C1=O` (stereo not shown) [P_TM100, 2-Methyl-3-(4-isopropyl-benzyl)-4a,8a-dihydro-[1,4]naphthoquinone], the melting point lay in the range of 64 to 65 °C.
Consider `COc1ccc(CC2=C(C)C(=O)C3C=CC=CC3C2=O)cc1OC` (stereo not shown) [P_TM54, 2-(3,4-Dimethoxy-benzyl)-3-methyl-4a,8a-dihydro-[1,4]naphthoquinone], for which the melting point lay within 102 to 103 °C.
The same measure, in the same setting: to `O=C1C(Cc2ccc(Br)cc2)=C(C(F)F)C(=O)c2ccccc21` [P_TM101, 2-(4-Bromo-benzyl)-3-difluoromethyl-[1,4]naphthoquinone] belongs 103 to 104 °C; to `COc1ccc(CC2=C(C)C(=O)C3C=CC=CC3C2=O)c(OC)c1` (stereo not shown) [P_TM56, 2-(2,4-Dimethoxy-benzyl)-3-methyl-4a,8a-dihydro-[1,4]naphthoquinone], 103 to 105 °C.
For `CC1=C(Cc2ccc(C#N)cc2)C(=O)C2C=CC=CC2C1=O` (stereo not shown) [P_TM41, 2-Methyl-3-(4-cyano-benzyl)-4a,8a-dihydro-[1,4]naphthoquinone], the melting point fell in the range of 159 to 160 °C. The IC50 in series [1] is under 100 nM. In the series with Pf-GHA (72 h incubation), the IC50 was under 5000 nM.
Consider `COc1cc(CC2=C(C)C(=O)C3C=CC=CC3C2=O)cc(OC)c1` (stereo not shown) [P_TM58, 2-(3,5-Dimethoxy-benzyl)-3-methyl-4a,8a-dihydro-[1,4]naphthoquinone], for which the melting point is 127 to 128 °C. The concentration for half-maximal inhibition (IC50) in series [1] was under 100 nM. In addition, in the series with Pf-GHA (72 h incubation), the IC50 was under 5000 nM.
`CC1=C(Cc2ccc(Cl)cc2)C(=O)C2C=CC=CC2C1=O` (stereo not shown) [P_TM30, 2-Methyl-3-(4-chloro-benzyl)-4a,8a-dihydro-[1,4]naphthoquinone]: the melting point was in the range of 134 to 135 °C. Besides, the IC50 in series [1] was under 100 nM. Moreover, the IC50 with Pf-GHA (72 h incubation) is under 5000 nM.
`CC1=C(Cc2ccc(C(C)(C)C)cc2)C(=O)c2c(O)cccc2C1=O` [P_TM81, 3-(4-tert-Butyl-benzyl)-5-hydroxy-2-methyl-[1,4]naphthoquinone] returned a melting point of 112 to 113 °C. Moreover, the IC50 in the series on Pf-GHA (72 h incubation) is under 5000 nM.
For `CC1=C(Cc2ccc(-c3ccc(C(C)(C)C)cc3)cc2)C(=O)c2ccccc2C1=O` [P_TM66, 2-(4′-tert-Butyl-biphenyl-4-ylmethyl)-3-methyl-[1,4]naphthoquinone], in that order: 112 to 114 °C and under 5000 nM.
Consider `CCCCC(C1=C(C)C(=O)c2ccccc2C1=O)c1ccc(-c2ccc([N+](=O)[O-])cc2)cc1` (stereo not shown) [P_TM67, 2-(4′-nitro-Butyl-biphenyl-4-ylmethyl)-3-methyl-[1,4]naphthoquinone], for which the IC50 with Pf-GHA (72 h incubation) was under 5000 nM.
In turn, `COC(=O)c1ccc(C(=O)C2=C(C)C(=O)c3ccccc3C2=O)cc1` [P_TM28, 4-(3-Methyl-1,4-dioxo-1,4-dihydro-naphthalene-2-carbonyl)-benzoic acid methyl ester] gave a melting point of 162 °C.
As for `CC1=C(Cc2ccccc2)C(=O)C2C=CC=CC2C1=O` (stereo not shown) [P_TM62, 2-Methyl-3-benzyl-4a,8a-dihydro-[1,4]naphthoquinone], the melting point fell in the range of 103 to 104 °C. In series [1] (compared with substituted benzyl derivatives), the “antimalarial activity against Dd2” value was “less active”.
`COc1cccc(CC2=C(C)C(=O)c3ccccc3C2=O)c1` [P_TM96, 2-(3-Methoxy-benzyl)-3-methyl-[1,4]naphthoquinone] displayed a melting point of 87 to 88 °C.
Still for that read-out and setting: the figure for `CC1=C(C(=O)c2ccc(C(C)(C)C)cc2)C(=O)C2C=CC=CC2C1=O` (stereo not shown) [P_TM48, 2-Methyl-3-(4-tertbutyl-benzoyl)-4a,8a-dihydro-[1,4]naphthoquinone] is 64 to 65 °C.
`CC1=C(C(=O)c2ccc(C#N)cc2)C(=O)C2C=CC=CC2C1=O` (stereo not shown) [P_TM46, 2-Methyl-3-(4-cyano-benzoyl)-4a,8a-dihydro-[1,4]naphthoquinone]: the melting point is 185 to 186 °C. Also, the IC50 in the series on Pf-GHA (72 h incubation) was under 5000 nM.
`COc1c(C)c(Cc2ccc(N3CCN(Cc4ccc(C(C)(C)C)cc4)CC3)cc2)c(OC)c2ccccc12` [P_TM78, 1-(4-tert-Butyl-benzyl)-4-[4-(1,4-dimethoxy-3-methyl-naphthalen-2-ylmethyl)-phenyl]piperazine] gave a melting point of 63 to 65 °C.
The same measure, in the same setting: the figure for `CC1=C(Cc2ccc(F)cc2)C(=O)C2C=CC=CC2C1=O` (stereo not shown) [P_TM26, 2-Methyl-3-(4-fluoro-benzyl)-4a,8a-dihydro-[1,4]naphthoquinone] is 118 to 119 °C.
Compound `COc1ccc(OC)c(CC2=C(C)C(=O)C3C=CC=CC3C2=O)c1` (stereo not shown) [P_TM60, 2-(2,5-Dimethoxy-benzyl)-3-methyl-4a,8a-dihydro-[1,4]naphthoquinone] showed a melting point of 140 to 142 °C. In addition, the IC50 in series [1] is under 100 nM.
Regarding `COc1c(C)c(C(O)c2ccc(Br)cc2)c(OC)c2ccccc12` (stereo not shown) [P_TM7, (4-Bromo-phenyl)-(1,4-dimethoxy-3-methyl-naphthalen-2-yl)-methanol], the melting point fell in the range of 67 to 68 °C.
The compound `CC1=C(Cc2ccc(N)cc2)C(=O)C2C=CC=CC2C1=O` (stereo not shown) [P_TM103, 2-Methyl-3-(4-amino-benzyl)-4a,8a-dihydro-[1,4]naphthoquinone] yielded a melting point of 152 to 153 °C.
`C[C@H]1[C@H](OC(=O)CCC(=O)O)O[C@@H]2O[C@@]3(C)CC[C@H]4[C@H](C)CC[C@@H]1[C@@]24OO3` [Artesunate, reference compound]: the IC50 in the series with Pf-GHA (72 h) came out at 5 nM.

The values above are taken from US9090549B2, “1,4-naphthoquinones derivatives and therapeutic use thereof” (CENTRE NATIONAL DE LA RECHERCHE SCIENTIFIQUE (C.N.R.S.), priority 2008, dated 2015).
